Assays:
[1] = system: migraine headache; conditions: human, in vivo
[2] = system: tension headache; conditions: human, in vivo

## C[C@@H]1[C@H](c2ccccc2)C[C@H](NC(=O)c2cnc3c(c2)C[C@@]2(C3)C(=O)Nc3ncccc32)C(=O)N1CC(F)(F)F [Ubrelvy]
[1]
  benefit as rescue medication: not helpful

## CN(C)CCC=C1c2ccccc2CCc2ccccc21 [amitriptyline]
[1]
  benefit as migraine prophylactic agent: without benefit

## NCC(CC(=O)O)c1ccc(Cl)cc1 (centres unmarked) [baclofen]
[1]
  benefit as migraine prophylactic agent: without benefit
  benefit as migraine prophylaxis: no benefit
  benefit from previous treatment: no benefit

## CCCCN1CCCCC1C(=O)Nc1c(C)cccc1C (centres unmarked) [bupivacaine]
[1]
  pain after local anesthetic injection along superior nuchal line: substantially improved for two days

## Oc1ccc2c(c1)[C@@]13CCCC[C@@]1(O)[C@@H](C2)N(CC1CCC1)CC3 [butorphanol]
[1]
  benefit as rescue medication: without benefit

## NC(=O)N1c2ccccc2C=Cc2ccccc21 [carbamazepine]
[1]
  benefit as migraine prophylactic agent: without benefit

## COC1=C(OC)C(=O)C(C/C=C(\C)CC/C=C(\C)CC/C=C(\C)CC/C=C(\C)CC/C=C(\C)CC/C=C(\C)CC/C=C(\C)CC/C=C(\C)CC/C=C(\C)CCC=C(C)C)=C(C)C1=O [coenzyme Q10]
[1]
  benefit as migraine prophylactic agent: without benefit
  benefit as migraine prophylaxis: no benefit
  effect on headache frequency: did not affect the frequency of their headaches

## O=C(O)Cc1ccccc1Nc1c(Cl)cccc1Cl [diclofenac]
[1]
  benefit as rescue medication: without benefit

## CN1CCC[C@@H]1Cc1c[nH]c2ccc(CCS(=O)(=O)c3ccccc3)cc12 [eletriptan]
[1]
  benefit as rescue medication: consistently effective

## NCC1(CC(=O)O)CCCCC1 [gabapentin]
[1]
  benefit as migraine prophylactic agent: without benefit
  benefit as migraine prophylaxis: no benefit
  benefit from previous treatment: no benefit

## CC(C)Cc1ccc(C(C)C(=O)O)cc1 (centres unmarked) [ibuprofen]
[1]
  benefit from previous treatment: no benefit
[2]
  headache relief: may resolve with ibuprofen

## CCCCc1nc(Cl)c(CO)n1Cc1ccc(-c2ccccc2-c2nn[nH]n2)cc1 [losartan]
[1]
  benefit as migraine prophylaxis: no benefit

## CCN(CC)CCNC(=O)c1cc(Cl)c(N)cc1OC [metoclopramide]
[1]
  tolerability: intolerant

## C[C@]12C=CC(=O)C=C1CC[C@@H]1[C@@H]2C(=O)C[C@@]2(C)[C@H]1CC[C@]2(O)C(=O)CO [prednisone]
[1]
  benefit as migraine prophylactic agent: without benefit

## CC(C)C[C@H](CN)CC(=O)O [pregabalin]
[1]
  benefit as migraine prophylactic agent: without benefit
[2]
  comorbid neuropathic facial pain: treated effectively

## CC(C)NCC(O)COc1cccc2ccccc12 (centres unmarked) [propranolol]
[1]
  benefit as migraine prophylactic agent: without benefit
  benefit from previous treatment: no benefit
  tolerability: caused dizziness

## Cc1cc2nc3c(=O)[nH]c(=O)nc-3n(C[C@H](O)[C@H](O)[C@H](O)CO)c2cc1C [riboflavin]
[1]
  effect on headache frequency: did not affect the frequency of their headaches

## CN(C)CCc1c[nH]c2ccc(Cn3cncn3)cc12 [rizatriptan]
[1]
  adverse effect of rescue medication: severe elevation in their blood pressure
  benefit as rescue medication: no longer effective
  share of time the rescue medication worked: approximately 20 % of the time

## Clc1ccc2nsnc2c1NC1=NCCN1 [tizanidine]
[1]
  benefit as migraine prophylactic agent: without benefit
  benefit as migraine prophylaxis: partially helpful

## CC1(C)O[C@@H]2[C@@H](CO[C@@]3(COS(N)(=O)=O)OC(C)(C)O[C@@H]23)O1 [topiramate]
[1]
  benefit as migraine prophylactic agent: without benefit
  severe migraine headache frequency: 5 to 7 days a week
  tolerability: could not tolerate the side effects

## CCCC(CCC)C(=O)O [valproic acid]
[1]
  benefit as migraine prophylactic agent: without benefit

## CN(C)CCc1c[nH]c2ccc(C[C@H]3COC(=O)N3)cc12 [zolmitriptan nasal spray, zolmitriptan]
[1]
  benefit as rescue medication: without benefit

## NS(=O)(=O)Cc1noc2ccccc12 [zonisamide]
[1]
  benefit as migraine prophylactic agent: without benefit

B1: Ajovy: prophylactic agent tried for migraines (antibody, chains of the INN, looked up, V domains shown)
VH: EVQLVESGGGLVQPGGSLRLSCAASGFTFSNYWISWVRQAPGKGLEWVAEIRSESDASATHYAEAVKGRFTISRDNAKNSLYLQMNSLRAEDTAVYYCLAYFDYGLAIQNYWGQGTLVTVSS
VL: EIVLTQSPATLSLSPGERATLSCKASKRVTTYVSWYQQKPGQAPRLLIYGASNRYLGIPARFSGSGSGTDFTLTISSLEPEDFAVYYCSQSYNYPYTFGQGTKLEIK
[1]
  benefit as migraine prophylactic agent: without benefit

B2: Emgality: prophylactic agent prescribed for chronic migraine (antibody, chains of the INN, looked up, V domains shown)
VH: QVQLVQSGAEVKKPGSSVKVSCKASGYTFGNYWMQWVRQAPGQGLEWMGAIYEGTGKTVYIQKFADRVTITADKSTSTAYMELSSLRSEDTAVYYCARLSDYVSGFGYWGQGTTVTVSS
VL: DIQMTQSPSSLSASVGDRVTITCRASKDISKYLNWYQQKPGKAPKLLIYYTSGYHSGVPSRFSGSGSGTDFTLTISSLQPEDFATYYCQQGDALPPTFGGGTKVEIK
[1]
  benefit as migraine prophylactic agent: without benefit
  benefit of subsequent treatment: reduced the pain somewhat, but had not reduced the frequency or duration
  migraine frequency: 2 to 3 days/week
  tolerability: caused unwanted side effects
[2]
  frequency of headaches with throbbing, light and sound sensitivity: decreased to around once or twice per week

Reference: patent US20250387426A1 (priority 2024, published 2025)
